Patent US12415785B2, “Compound modulators of sting” (CTXT PTY LTD, priority 2019, dated 2025)

Test system: human STING (HAQ)
Experiment: Differential scanning fluorimetry (DSF), huSTING (HAQ)
Format: binding
Conditions: 2 μM protein, compound 100 μM; Tm with ligand minus Tm of protein alone (1% DMSO)
In short: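 Recombinant His-TEV-tagged human STING allelic variants expressed in E. coli and purified by IMAC. Thermal unfolding followed by dye fluorescence (excitation 490 nm, emission 570 nm) from 20° C. to 100° C. in 0.5° C. steps, in triplicate, with and without ligand; Tm taken from the transition inflection point.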

NC(=O)c1ccc2c(c1)nc(-c1c(Br)cccc1C(=O)O)n2CCn1c(-c2c(Br)cccc2C(=O)O)nc2cc(C(N)=O)ccc21 (single isomer, unassigned) [Example 29.1, 2,2′-(Ethane-1,2-diylbis(5-carbamoyl-1H-benzo[d]imidazole-1,2-diyl))bis(3-bromobenzoic acid)]
DSF huSTING (HAQ) ΔTm (° C.): 7.46 °C
